Measured values from article PMC7217877, “N-AS-triggered SPMs are direct regulators of microglia in a model of Alzheimer’s disease” (Nature Communications, 2020).
Where “and” joins values, the source holds several entries; their conditions need not be identical. Equal values may be shown once.

Key:
APP/PS1 mice [1] = experiment: Morris water maze test (Fig 6k-q); format: in vivo, mouse; set-up: Morris water maze learning curve (Figure 6k) / Morris water maze learning curve (Figure 6k), group mean (평균) / Morris water maze, Non-Target quadrant (Figure 6l) / Morris water maze, Target quadrant (Figure 6l) / Morris water maze, A0 (Target quadrant) (Figure 6m) / Morris water maze, quadrant A1 (Figure 6m) / Morris water maze, quadrant A2 (Figure 6m) / Morris water maze, quadrant A3 (Figure 6m): unit not given here; settings: for Morris water maze learning curve (Figure 6k), group mean (평균): AD/N-AS group mean; for Morris water maze learning curve (Figure 6k): AD/N-AS individual animals
Procedure: Transgenic mouse lines over-expressing the hAPP695swe (APP) and presenilin-1M146V (PS1) mutations were originated from GlaxoSmithKline (Harlow, UK)[32] and maintained as described previously. We purchased 5×FAD mice from Jackson Labs (Stock number. 34840-JAX). Because APP/PS1 and 5xFAD mice show sex differences in disease progression, we used only male mice. To examine possible therapeutic effect of N-AS and aspirin in APP/PS1 mice, the N-AS (30 mg kg^−1, Sigma-Aldrich, 01912) was injected daily s.c. for 8 weeks to 7-months-old APP/PS1 mice until the age of 9 months, and aspirin (2 mg kg^−1, Sigma-Aldrich, A5376)[33] was administrated orally to 7-months-old APP/PS1 mice for 8 weeks. […] Block randomization method was used to allocate the animals to experimental groups. To eliminate the bias, we were blinded in experimental progress such as data collection and data analysis. Mice were housed at temperature of 22 °C and a 12 h day/12 h night cycle with free access to tap water and food pellets. All protocols were approved by the Kyungpook National University Institutional Animal Care and Use Committee. We performed behavioral studies to assess spatial learning and memory in the Morris water maze as previously described[11],[31]. Animals were given four trials per day for 10 days to learn the task. At day 11, animals were given a probe trial in which the platform was removed. Fear conditioning was conducted by previously described techniques. On the conditioning day, mice were individually placed into the conditioning chamber. After a 60 s exploratory period, a tone (10 kHz, 70 dB) was delivered for 10 s; this served as the conditioned stimulus (CS). The CS co-terminated with the unconditioned stimulus (US), a scrambled electrical footshock (0.3 mA, 1 s). The CS-US pairing was delivered twice at a 20 s intertrial interval. On day 2, each mouse was placed in the fear-conditioning chamber containing the same exact context, but with no administration of a CS or foot shock. Freezing was analyzed for 5 min. On day 3, a mouse was placed in a test chamber that was different from the conditioning chamber. After a 60 s exploratory period, the tone was presented for 60 s without the footshock. The rate of freezing response of mice was used to measure the fear memory. The open field test was used for locomotion and anxious behaviors as previously described. The open field box consisted of a square box. Each animal was placed in the box for 10 min. Overall activity in the box was measured, and the amount of time and distance traveled in the center arena was noted. After each trial, the test chambers were cleaned with a damp towel and distilled water followed by 70% alcohol. The light-dark test was used for assessing the anxiety-like behavior as previously described. One chamber was brightly illuminated, whereas the other chamber was dark. Mice were placed into the dark chamber and allowed to move freely between the two chambers with the door open for 10 min. The total number of transitions, latency to first enter the light chamber, distance traveled, and time spent in each chamber were recorded.

APP/PS1 mice [2] = experiment: mRNA levels of NEP, MMP9, IDE, CD36 in microglia (Supplementary Fig 5c); format: in vivo, mouse; set-up: CD36 mRNA level in microglia / NEP mRNA level in microglia / MMP9 mRNA level in microglia / IDE mRNA level in microglia: scale not given here
Procedure: Transgenic mouse lines over-expressing the hAPP695swe (APP) and presenilin-1M146V (PS1) mutations were originated from GlaxoSmithKline (Harlow, UK)[32] and maintained as described previously. We purchased 5×FAD mice from Jackson Labs (Stock number. 34840-JAX). Because APP/PS1 and 5xFAD mice show sex differences in disease progression, we used only male mice. To examine possible therapeutic effect of N-AS and aspirin in APP/PS1 mice, the N-AS (30 mg kg^−1, Sigma-Aldrich, 01912) was injected daily s.c. for 8 weeks to 7-months-old APP/PS1 mice until the age of 9 months, and aspirin (2 mg kg^−1, Sigma-Aldrich, A5376)[33] was administrated orally to 7-months-old APP/PS1 mice for 8 weeks. Also, to confirm possible therapeutic efficacy of N-AS in 5×FAD, the N-AS (30 mg kg^−1, Sigma-Aldrich, 01912) was injected daily s.c. for 4 weeks to 3-months-old 5×FAD mice until the age of 4 months. Block randomization method was used to allocate the animals to experimental groups. To eliminate the bias, we were blinded in experimental progress such as data collection and data analysis. Mice were housed at temperature of 22 °C and a 12 h day/12 h night cycle with free access to tap water and food pellets. All protocols were approved by the Kyungpook National University Institutional Animal Care and Use Committee.
For total RNA extraction from the microglia derived from WT, APP/PS1, APP/PS1 mice treated with N-AS, and APP/PS1 mice treated with aspirin, the cells were isolated from the cortex of WT, APP/PS1, APP/PS1 mice treated with N-AS, or aspirin using the methods described above. Total RNA was isolated using the kit components according to the manufacturer’s instructions (RNeasy mini kit, 74134, QIAGEN). cDNA was synthesized from 5 μg of total RNA using a commercially available kit (Takara). Quantitative real-time PCR was performed using a Corbett research RG-6000 real-time PCR instrument. Primers are described in Supplementary Table 5.

[3] = APP/PS1 + N-AS, individual animals
[4] = APP/PS1 + N-AS, individual values, sFig 5c

CCCCCCCCCCCCC/C=C/[C@@H](O)[C@H](CO)NC(C)=O [N-AS, N-((2S,3R,E)-1,3-Dihydroxyoctadec-4-en-2-yl)acetamide]
Morris water maze, A0 (Target quadrant) (Figure 6m) (APP/PS1 mice [1]; [3]): 14.5 and 35 and 17.5 and 31.5 and 19.5 and 29.5 and 37.5 and 7.5 and 9.5 and 20 and 10 and 18 and 24 and 10.5 and 30.5 and 43
Morris water maze, Non-Target quadrant (Figure 6l) (APP/PS1 mice [1]; [3]): 15.1667 and 8.333 and 14.1667 and 9.5 and 13.5 and 10.1667 and 7.5 and 17.5 and 16.8333 and 13.3333 and 16.6667 and 14 and 12 and 16.5 and 9.833 and 5.667
Morris water maze, Target quadrant (Figure 6l) (APP/PS1 mice [1]; [3]): 14.5 and 35 and 17.5 and 31.5 and 19.5 and 29.5 and 37.5 and 7.5 and 9.5 and 20 and 10 and 18 and 24 and 10.5 and 30.5 and 43
Morris water maze, quadrant A1 (Figure 6m) (APP/PS1 mice [1]; [3]): 17.5 and 9 (2×) and 20 and 6.5 (2×) and 15.5 (2×) and 32 and 21 and 8.5 and 28 and 14 and 22 and 6 and 3
Morris water maze, quadrant A2 (Figure 6m) (APP/PS1 mice [1]; [3]): 16 and 9.5 and 14 and 9 and 21.5 and 19 and 2 and 2.5 and 10 and 15 (2×) and 13.5 and 11.5 and 21 and 19.5 and 7
Morris water maze, quadrant A3 (Figure 6m) (APP/PS1 mice [1]; [3]): 12 and 6.5 (2×) and 8.5 and 13 and 10 and 5 (2×) and 18 and 19.5 and 16.5 and 7 (2×) and 14.5 and 9 and 4
memory formation, Morris water maze (APP/PS1 mice [1]; N-AS vs vehicle APP/PS1): largely protected from this defect
Morris water maze learning curve (Figure 6k), group mean (평균) (APP/PS1 mice [1]; day 1): 42.2833
Morris water maze learning curve (Figure 6k) (APP/PS1 mice [1]; day 1): 60 and 38.125 and 47.875 and 37.75 and 40.875 and 47.75 and 32.5 and 22.875 and 46 and 29.25 and 55.625
Morris water maze learning curve (Figure 6k), group mean (평균) (APP/PS1 mice [1]; day 2): 36.025
Morris water maze learning curve (Figure 6k) (APP/PS1 mice [1]; day 2): 40.25 and 39.875 and 60 and 24.625 and 34.625 and 51 and 16.875 and 15.75 and 46.75 and 19.875
Morris water maze learning curve (Figure 6k), group mean (평균) (APP/PS1 mice [1]; day 3): 36.0583
Morris water maze learning curve (Figure 6k) (APP/PS1 mice [1]; day 3): 37.5 and 38.875 and 60 and 43.625 and 20.125 and 43.25 and 17.375 and 42 and 34.75 and 24.875
Morris water maze learning curve (Figure 6k), group mean (평균) (APP/PS1 mice [1]; day 4): 34.2583
Morris water maze learning curve (Figure 6k) (APP/PS1 mice [1]; day 4): 37.125 and 35.25 and 60 and 49.75 and 25.875 and 12 and 37.5 and 8.375 and 36.125
Morris water maze learning curve (Figure 6k), group mean (평균) (APP/PS1 mice [1]; day 5): 34.3417
Morris water maze learning curve (Figure 6k) (APP/PS1 mice [1]; day 5): 43.125 and 17.125 and 55.5 and 30.25 and 26.375 and 55.25 and 23.875 and 38.5 and 13.5 and 31.125
Morris water maze learning curve (Figure 6k), group mean (평균) (APP/PS1 mice [1]; day 6): 32.3333
Morris water maze learning curve (Figure 6k) (APP/PS1 mice [1]; day 6): 28.5 and 25 and 50.375 and 17.375 and 47.125 and 52.75 and 16.25 and 60 and 13.25 and 35.25
Morris water maze learning curve (Figure 6k), group mean (평균) (APP/PS1 mice [1]; day 7): 30.9667
Morris water maze learning curve (Figure 6k) (APP/PS1 mice [1]; day 7): 47.875 and 26.5 and 46.5 and 22.75 and 19 and 33.75 and 27.5 and 50.25 and 12.375 and 43
Morris water maze learning curve (Figure 6k), group mean (평균) (APP/PS1 mice [1]; day 8): 23.3417
Morris water maze learning curve (Figure 6k) (APP/PS1 mice [1]; day 8): 37.125 and 17.75 and 27.875 and 22.625 and 16.625 and 24.375 and 5.5 and 25.125 and 14.875 and 41
Morris water maze learning curve (Figure 6k), group mean (평균) (APP/PS1 mice [1]; day 9): 22.7083
Morris water maze learning curve (Figure 6k) (APP/PS1 mice [1]; day 9): 32.25 and 21.375 and 17.5 and 11.125 and 27.125 and 18.875 and 12.75 and 21.625 and 50.375 and 15.875
Morris water maze learning curve (Figure 6k), group mean (평균) (APP/PS1 mice [1]; day 10): 21.95
Morris water maze learning curve (Figure 6k) (APP/PS1 mice [1]; day 10): 23.625 and 39.125 and 23.5 and 13 and 13.75 and 40.75 and 22.25 and 36.625 and 14.75 and 17.75
CD36 mRNA level in microglia (APP/PS1 mice [2]; [4]): 0.97 and 0.75 and 0.78 and 0.69 and 0.81 and 0.87 and 0.79 and 0.61
IDE mRNA level in microglia (APP/PS1 mice [2]; [4]): 0.68 and 0.56 and 0.55 and 0.48 and 0.82 and 0.81 and 0.71 and 0.78 and 0.77
MMP9 mRNA level in microglia (APP/PS1 mice [2]; [4]): 0.87 and 0.47 and 0.35 and 0.38 and 0.69 and 0.52 and 0.57 and 1.05 and 0.8
NEP mRNA level in microglia (APP/PS1 mice [2]; [4]): 0.96 and 0.5 and 0.52 and 0.57 and 0.56 and 0.59 and 0.64 and 0.85 and 0.88
CD36 expression (APP/PS1 mice [2]; APP/PS1 treated with N-AS): enhanced
expression of Aβ degrading enzymes (NEP, MMP9, IDE) (APP/PS1 mice [2]; WT, APP/PS1 vehicle, APP/PS1 N-AS): remained unchanged between the groups
